Assay [1] has as its target T1, KRAS G12C::SOS1 (Homo sapiens, UniProt Q07889).
T1 construct: purchased CISBIO 64KRASG12PEH
T1 sequence (Q07889 1-1333): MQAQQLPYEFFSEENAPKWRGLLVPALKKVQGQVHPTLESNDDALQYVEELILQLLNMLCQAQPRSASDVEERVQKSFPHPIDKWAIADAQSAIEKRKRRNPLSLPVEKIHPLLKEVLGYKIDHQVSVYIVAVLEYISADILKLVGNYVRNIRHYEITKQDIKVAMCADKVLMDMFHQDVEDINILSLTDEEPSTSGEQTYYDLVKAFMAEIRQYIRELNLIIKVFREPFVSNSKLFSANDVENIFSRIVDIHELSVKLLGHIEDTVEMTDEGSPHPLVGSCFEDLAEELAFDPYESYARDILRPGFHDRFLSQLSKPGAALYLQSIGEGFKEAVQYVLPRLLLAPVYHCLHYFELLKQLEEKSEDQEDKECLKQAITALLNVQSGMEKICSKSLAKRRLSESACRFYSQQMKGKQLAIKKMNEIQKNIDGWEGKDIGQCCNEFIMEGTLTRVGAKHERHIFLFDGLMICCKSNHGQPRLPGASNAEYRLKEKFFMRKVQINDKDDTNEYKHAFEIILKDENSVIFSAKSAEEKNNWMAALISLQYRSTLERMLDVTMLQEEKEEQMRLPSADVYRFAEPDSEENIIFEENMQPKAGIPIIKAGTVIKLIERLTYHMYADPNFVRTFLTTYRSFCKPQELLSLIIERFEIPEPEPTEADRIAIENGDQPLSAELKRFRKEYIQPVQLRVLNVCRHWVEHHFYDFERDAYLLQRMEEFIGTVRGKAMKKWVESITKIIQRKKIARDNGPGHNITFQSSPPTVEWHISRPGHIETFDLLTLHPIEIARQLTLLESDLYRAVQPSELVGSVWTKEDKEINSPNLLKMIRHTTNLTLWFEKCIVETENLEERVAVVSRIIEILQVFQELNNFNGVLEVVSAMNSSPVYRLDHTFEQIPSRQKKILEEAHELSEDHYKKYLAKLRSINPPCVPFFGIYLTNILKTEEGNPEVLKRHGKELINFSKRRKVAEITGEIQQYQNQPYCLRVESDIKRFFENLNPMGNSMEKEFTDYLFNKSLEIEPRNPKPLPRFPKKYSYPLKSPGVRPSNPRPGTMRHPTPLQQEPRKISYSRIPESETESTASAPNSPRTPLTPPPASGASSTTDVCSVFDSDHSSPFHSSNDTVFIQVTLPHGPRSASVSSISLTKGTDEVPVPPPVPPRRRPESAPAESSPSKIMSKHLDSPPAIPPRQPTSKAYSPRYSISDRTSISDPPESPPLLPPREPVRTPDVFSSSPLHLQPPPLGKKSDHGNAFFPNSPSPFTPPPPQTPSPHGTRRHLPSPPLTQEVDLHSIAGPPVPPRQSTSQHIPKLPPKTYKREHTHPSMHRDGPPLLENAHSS
Kind of assay: KRAS G12C::SOS1 protein-protein interaction (PPI) inhibition assay (HTRF). The assay is classed as binding. Put shortly:
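Compounds, at eight 3-fold dilutions from 3 µM, were mixed with GTP-loaded Tag1-KRAS G12C, Tag2-SOS1 and a terbium-cryptate donor plus XL665 acceptor antibody pair. After 2 h at room temperature, time-resolved FRET reported the KRAS–SOS1 interaction.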
For orientation: In TR-FRET formats the signal depends on donor and acceptor labels being close together.

Assay [2] relates to lung cancer cell line NCI-H358 having the KRAS G12C variant. Kind of assay: Cancer cell growth inhibition, 3D spheroids (CellTiter-Glo 3D). The assay is classed as cell-based. Conditions: Homo sapiens, NCI-H358, 120 h, read-out: H358 cell viability. Here is the method: Thereafter, the plate with the cells cultured was adapted to room temperature for 10 minutes, and then 50 µL of CellTiter-Glo® 3D Cell Viability Assay (PROMEGA, G9683) solution was dispensed, and reacted on a horizontal stirrer at a speed of 300 RPM for 30 minutes to induce the cell lysis. […] Thereafter, based on the measured values, the degree of cell growth in the well treated with each compound was calculated when the final cell density value of the well not treated with the test substance was set to 100%.
In general terms: In ATP-based viability assays light output follows the ATP content of the culture.

The target in assay [3] is T2, SOS1 (Homo sapiens, UniProt Q07889).
T2 construct: HIS-SOS1cat (160 nM; Cytoskeleton, US); His (N); purchased Cytoskeleton
T2 sequence (Q07889 564-1049 limits assumed): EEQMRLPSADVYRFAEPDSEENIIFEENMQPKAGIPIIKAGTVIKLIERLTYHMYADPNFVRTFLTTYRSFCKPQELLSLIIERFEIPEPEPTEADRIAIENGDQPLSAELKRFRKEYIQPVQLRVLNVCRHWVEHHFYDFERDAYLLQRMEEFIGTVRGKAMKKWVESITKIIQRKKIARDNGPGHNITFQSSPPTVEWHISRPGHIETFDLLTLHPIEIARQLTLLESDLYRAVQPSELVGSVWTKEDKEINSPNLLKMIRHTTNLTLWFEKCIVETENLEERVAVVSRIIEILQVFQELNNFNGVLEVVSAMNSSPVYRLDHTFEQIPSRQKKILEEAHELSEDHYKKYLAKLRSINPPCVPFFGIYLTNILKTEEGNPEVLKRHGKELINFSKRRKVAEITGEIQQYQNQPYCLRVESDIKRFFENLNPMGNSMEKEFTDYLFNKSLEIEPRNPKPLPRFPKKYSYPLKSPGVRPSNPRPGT
Description: SOS-catalyzed nucleotide exchange assay (HTRF, SOS1-mediated GTP loading of KRAS G12D). Format: biochemical.

Where [4] appears, read: 8 concentrations from 3 µM, three replicates, read-out: KRAS G12C::SOS1 PPI.
Where [5] appears, read: 3D spheroids, 0.002-10 µM, 5 days.
Where [6] appears, read: GST-KRAS G12D, HIS-SOS1cat, compound 128 pM to 10 µM, read-out: SOS-catalyzed nucleotide exchange assay.

Molecules are shown by their SMILES. Where two headings read alike, the source gives them in different places.

`C[C@@H](NC(=O)c1ccc(=O)n(-c2cncc(-c3cnnn3C)c2)n1)c1cccc(C(F)(F)CO)c1F` [Example 1, N-[(1R)-1-[3-(1,1-difluoro-2-hydroxy-ethyl)-2-fluoro-phenyl]ethyl]-1-[5-(3-methyltriazol-4-yl)-3-pyridyl]-6-oxo-pyridazine-3-carboxamide]: the IC50 in assay [1] was < 50 nM; in assay [2], < 1000 nM; in assay [3], < 50 nM.

Turning to `C[C@@H](NC(=O)c1ccc(=O)n(-c2cncc(-c3cnnn3C)c2)n1)c1cccc(C(F)F)c1F` [Example 1-1, N-[(1R)-1-[3-(difluoromethyl)-2-fluoro-phenyl]ethyl]-1-[5-(3-methyltriazol-4-yl)-3-pyridyl]-6-oxo-pyridazine-3-carboxamide], the values for the IC50 in assay [1] (setting [4]), in assay [2] (setting [5]) and in assay [3] (setting [6]) were < 50 nM, < 1000 nM and 50 to 150 nM, respectively.

Regarding `[2H]C([2H])([2H])n1nncc1-c1cncc(-n2nc(C(=O)N[C@H](C)c3cc(N)cc(C(F)F)c3)ccc2=O)c1` [Example 1-4, N-[(1R)-1-[3-amino-5-(difluoromethyl)phenyl]ethyl]-6-oxo-1-[5-[3-(trideuteriomethyl)triazol-4-yl]-3-pyridyl]pyridazine-3-carboxamide], the values for the IC50 in assay [1] (setting [4]), in assay [2] (setting [5]) and in assay [3] (setting [6]) were < 50 nM, > 3000 nM and 50 to 150 nM, respectively.

Consider `[2H]C([2H])([2H])n1nncc1-c1cncc(-n2nc(C(=O)N[C@H](C)c3cccc(C(F)(F)F)c3F)ccc2=O)c1` [Example 1-5, N-[(1R)-1-[2-fluoro-3-(trifluoromethyl)phenyl]ethyl]-6-oxo-1-[5-[3-(trideuteriomethyl)triazol-4-yl]-3-pyridyl]pyridazine-3-carboxamide], for which the IC50 in assay [2] (setting [5]) is < 1000 nM.

For `[2H]C([2H])([2H])n1nncc1-c1cncc(-n2nc(C(=O)N[C@H](C)c3cccc(C(F)F)c3F)ccc2=O)c1` [Example 1-6, N-[(1R)-1-[3-(difluoromethyl)-2-fluoro-phenyl]ethyl]-6-oxo-1-[5-[3-(trideuteriomethyl)triazol-4-yl]-3-pyridyl]pyridazine-3-carboxamide], the IC50 in assay [1] (setting [4]) is < 50 nM; in assay [2] (setting [5]), > 3000 nM; in assay [3] (setting [6]), 50 to 150 nM.

Consider `[2H]C([2H])([2H])n1nncc1-c1cncc(-n2nc(C(=O)N[C@H](C)c3cccc(C(F)(F)CO)c3F)ccc2=O)c1` [Example 1-7, N-[(1R)-1-[3-(1,1-difluoro-2-hydroxy-ethyl)-2-fluoro-phenyl]ethyl]-6-oxo-1-[5-[3-(trideuteriomethyl)triazol-4-yl]-3-pyridyl]pyridazine-3-carboxamide], for which the IC50 in assay [1] (setting [4]) was < 50 nM; in assay [2] (setting [5]), < 1000 nM; in assay [3] (setting [6]), < 50 nM.

For the compound `C[C@@H](NC(=O)c1ccc(=O)n(-c2cncc(-c3cnnn3C)c2)n1)c1cc(N)cc(C(F)(F)F)c1` [Example 1-9, N-[(1R)-1-[3-amino-5-(trifluoromethyl)phenyl]ethyl]-1-[5-(3-methyltriazol-4-yl)-3-pyridyl]-6-oxo-pyridazine-3-carboxamide], the results for the IC50 in assay [1] (setting [4]), in assay [2] (setting [5]) and in assay [3] (setting [6]) were < 50 nM, < 1000 nM and < 50 nM, respectively.

Take `C[C@@H](NC(=O)c1ccc(=O)n(-c2cncc(-c3cnnn3C)c2)n1)c1cccc(C(C)(F)F)c1F` [Example 1-11, N-[(1R)-1-[3-(1,1-difluoroethyl)-2-fluoro-phenyl]ethyl]-1-[5-(3-methyltriazol-4-yl)-3-pyridyl]-6-oxo-pyridazine-3-carboxamide]: the IC50 in assay [1] (setting [4]) was 50 to 150 nM; in assay [2] (setting [5]) it was < 1000 nM; in assay [3] (setting [6]), 50 to 150 nM.

For `CCn1nncc1-c1cncc(-n2nc(C(=O)N[C@H](C)c3cccc(C(F)(F)F)c3F)ccc2=O)c1` [Example 1-12, N-[(1R)-1-[2-fluoro-3-(trifluoromethyl)phenyl]ethyl]-1-[5-(3-ethyltriazol-4-yl)-3-pyridyl]-6-oxo-pyridazine-3-carboxamide], the IC50 was 50 to 150 nM in assay [1] (setting [4]), < 1000 nM in assay [2] (setting [5]) and < 50 nM in assay [3] (setting [6]).

On to `Cc1cc(C(=O)N[C@H](C)c2cccc(C(F)F)c2F)nn(-c2cncc(-c3cnnn3C)c2)c1=O` [Example 1-15, N-[(1R)-1-[3-(difluoromethyl)-2-fluoro-phenyl]ethyl]-5-methyl-1-[5-(3-methyltriazol-4-yl)-3-pyridyl]-6-oxo-pyridazine-3-carboxamide], for which the values for the IC50 in assay [1] (setting [4]), in assay [2] (setting [5]) and in assay [3] (setting [6]) were < 50 nM, < 1000 nM and < 50 nM, respectively.

For the compound `C[C@@H](NC(=O)c1ccc(=O)n(-c2cncc(-c3ccnn3C)c2)n1)c1cccc(C(F)(F)F)c1F` [Example 1-17, N-[(1R)-1-[2-fluoro-3-(trifluoromethyl)phenyl]ethyl]-1-[5-(2-methylpyrazol-3-yl)-3-pyridyl]-6-oxo-pyridazine-3-carboxamide], the IC50 in assay [1] (setting [4]) is > 150 nM; in assay [2] (setting [5]), < 1000 nM; in assay [3] (setting [6]), 50 to 150 nM.

As for `C[C@@H](NC(=O)c1ccc(=O)n(-c2cnnc(-c3ccnn3C)c2)n1)c1cccc(C(F)(F)CO)c1F` [Example 1-20, N-[(1R)-1-[3-(1,1-difluoro-2-hydroxy-ethyl)-2-fluoro-phenyl]ethyl]-1-[6-(2-methylpyrazol-3-yl)pyridazin-4-yl]-6-oxo-pyridazine-3-carboxamide], the IC50 was > 150 nM in assay [1] (setting [4]), > 3000 nM in assay [2] (setting [5]) and 50 to 150 nM in assay [3] (setting [6]).

Consider `C[C@@H](NC(=O)c1ccc(=O)n(-c2cncc(-c3cnnn3C)c2)n1)c1cccc(C2(C)CC2)c1F` [Example 1-33, N-[(1R)-1-[2-fluoro-3-(1-methylcyclopropyl)phenyl]ethyl]-1-[5-(3-methyltriazol-4-yl)-3-pyridyl]-6-oxo-pyridazine-3-carboxamide], for which the IC50 in assay [1] (setting [4]) was > 150 nM; in assay [2] (setting [5]), > 3000 nM.

For `[2H]C([2H])([2H])[C@@]([2H])(NC(=O)c1ccc(=O)n(-c2cncc(-c3cnnn3C)c2)n1)c1cccc(C(F)(F)F)c1F` [Example 22, (R)-N-(1-(2-fluoro-3-(trifluoromethyl)phenyl)ethyl-1,2,2,2-tetradeuterio)-1-(5-(1-methyl-1H-1,2,3-triazol-5-yl)pyridin-3-yl)-6-oxo-1,6-dihydropyridazine-3-carboxamide], in assay [2] (setting [5]), the IC50 was < 1000 nM.

Take `C[C@@H](NC(=O)c1ccc(=O)n(-c2cncc(-c3cnnn3[C@@H]3CC3(F)F)c2)n1)c1cccc(C(F)(F)F)c1F` [Example 24, 1-[5-[3-[(1R)-2,2-difluorocyclopropyl]triazol-4-yl]-3-pyridyl]-N-[(1R)-1-[2-fluoro-3-(trifluoromethyl)phenyl]ethyl]-6-oxo-pyridazine-3-carboxamide]: the IC50 in assay [1] was > 150 nM; in assay [3] it was 50 to 150 nM.

Values taken from patent publication EP4667464A1 (Cyrus Therapeutics Inc., priority 2023, dated 2024).
